# Source: paper PMC7156367, “Cell surface processing of the P1 adhesin of Mycoplasma pneumoniae identifies novel domains that bind host molecules” (Scientific Reports, 2020)
# “Also recorded” adds a separate entry of the source. Where a SMILES comes first, the peptide text is derived from it. Where no end group is shown, it is not given here. The star is where a group is joined. Biotin = O=C1N[C@H]2[C@H](CS[C@H]2CCCCC(=O)*)N1
# T1: fetuin (Bos taurus, UniProt P12763)
# T1 construct: purchased Sigma F3004
# T1 sequence (P12763 19-359): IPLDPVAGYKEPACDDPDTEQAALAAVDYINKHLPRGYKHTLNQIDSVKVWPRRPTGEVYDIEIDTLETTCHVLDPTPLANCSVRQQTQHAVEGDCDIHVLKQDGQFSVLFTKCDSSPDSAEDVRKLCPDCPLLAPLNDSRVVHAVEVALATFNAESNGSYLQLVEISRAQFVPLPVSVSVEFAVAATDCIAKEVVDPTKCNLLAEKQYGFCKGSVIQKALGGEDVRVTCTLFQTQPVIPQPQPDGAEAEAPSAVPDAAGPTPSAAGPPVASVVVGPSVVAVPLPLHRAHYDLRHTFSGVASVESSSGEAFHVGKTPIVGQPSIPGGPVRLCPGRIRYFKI
# T2: Fetuin, fluorescent labelled (microscale thermophoresis) (bovine, UniProt P12763 19-359, fluorescent label)
# T2 construct: fetuin
# T2 sequence (looked up): T1 sequence (P12763 19-359)
# B1: rPdhB: Recombinant pyruvate dehydrogenase subunit B of M. pneumoniae (positive control) (protein, UniProt P75391 1-327, looked up)
# Pyruvate dehydrogenase E1 …: MSKTIQANNIEALGNAMDLALERDPNVVLYGQDAGFEGGVFRATKGLQKKYGEERVWDCPIAEAAMAGIGVGAAIGGLKPIVEIQFSGFSFPAMFQIFTHAARIRNRSRGVYTCPIIVRMPMGGGIKALEHHSETLEAIYGQIAGLKTVMPSNPYDTKGLFLAAVESPDPVVFFEPKKLYRAFRQEIPADYYTVPIGQANLISQGNNLTIVSYGPTMFDLINMVYGGELKDKGIELIDLRTISPWDKETVFNSVKKTGRLLVVTEAAKTFTTSGEIIASVTEELFSYLKAAPQRVTGWDIVVPLARGEHYQFNLNARILEAVNQLLK
# B2: Recombinant protein RP15 (C-terminal region of P1 adhesin) (domain or fragment)
# chain: DYVLPLAITVPIVVIVLSVTLGLAIGIPMHKNKQALKAGFALSNQKVDVLTKAVGSVFKEIINRTGISQAPKRLKQTSAAKPGAPRPPVPPKPGAPKPPVQPPKKPA
# notes: P1 adhesin (Mpn141) of M. pneumoniae, residues 1521-1627
# B3: P1-30, synthetic C-terminal peptide of P1 adhesin (peptide)
# peptide: TSAAKPGAPRPPVPPKPGAPKPPVQPPKKPA
# notes: P1 adhesin (Mpn141) of M. pneumoniae, residues 1597-1627; without any tags; also called C-terminal 30 amino acids; P1 tail; source: synthetic peptide (Chempeptide Limited, China)
# B4: P1-15, synthetic C-terminal peptide of P1 adhesin with N-terminal biotin (peptide)
# peptide: Biotin-PGAPKPPVQPPKKPA
# notes: P1 adhesin (Mpn141) of M. pneumoniae, residues 1613-1627; also called C-terminal 15 amino acids; source: synthetic peptide (Chempeptide Limited, China)
# Key:
# plasminogen = molecular target: T3, plasminogen (Homo sapiens, UniProt P00747); experiment: Microscale thermophoresis, binding to plasminogen
# T3 construct: purchased Merck Millipore (Code 528175) or Sigma (Glu-plasminogen, Code P7999); host or cells: human plasma
# Protocol: (§1) Binding affinities to fluorescent labelled host proteins was measured by microscale thermophoresis as described in[72]. Microscale thermophoresis was set to 30 s and samples were scanned with 40%, 60% and 80% MST Power. Dissociation constants were determined from generated dissociation curves with set hot/cold or thermophoresis settings. As a control, a scrambled version of the C-terminal P1 peptide ([…]) was synthesised by Chempeptide Limited (China) without any tags and binding affinities was measured.
# plasma fibronectin = experiment: Microtitre plate binding assay (ELISA), fibronectin; design: species or system human; conditions: 15 µg/ml of C-terminal P1 fragments bound to wells, absorbance 450 nm (620 nm reference), eight replicates, P1-15 with N-terminal biotin tag
# Protocol: (§2) Human proteins used for ELISA include: plasma fibrinogen (Code: F3879), plasma fibronectin (Code: 11051407001), Glu-plasminogen (Code: P7999), vitronectin (Code: SRP3186), laminin (Code: L6274), and lactoferrin (Code: L1294) which were all supplied by Sigma.
# (§3) Binding affinity measured by ELISA was performed as described previously. Recombinant protein RP15 was produced as described[55] and both C-terminal peptides were synthesised by Chempeptide Limited (China). P1-30 (^1597[…]^1627) without any tags, but P1-15 (^1613PGAPKPPVQPPKKPA^1627) was sequenced with an N-terminal biotin tag.
# (§4) 15 µg/ml of C-terminal P1 fragments were bound to wells and incubated with different host proteins. Wells were then incubated with different antiserum raised against the different host proteins at the following dilutions (all from Sigma): anti-fibrinogen 1:3000, anti-fibronectin 1:1000, anti-plasminogen: 1:2500, anti-vitronectin 1:5000, anti-laminin 1:750, and anti-lactoferrin 1:5,000. These incubations were followed by incubations with anti-rabbit IgG (Dako) or anti-goat IgG (both 1:2,000). Detection was measured by adding Tetramethylbenzidine (Sigma) followed by 1 M HCl, and absorbance was measured at 450 nm (620 nm as reference).
# cytokeratin 8 = experiment: Affinity chromatography of A549 lysate on P1-15, cytokeratin 8; assay type: binding, human; conditions: biotinylated P1-15 on avidin agarose vs uncoupled avidin agarose control, native A549 cell lysate
# Protocol: (§5) The C-terminal sequence of P1 (P1-15) was synthesised with an N-terminal biotin tag by Chempeptide Limited (China). Affinity chromatography was performed similar to the section above. In brief, 1 mg of the peptide was added to Avidin Agarose beads for 16 h at 4 °C. The beads were washed four times (5 ml per wash) with PBS before being incubated with native A549 cell lysates (harvested in 1% w/v C7BzO in PBS) for 16 h at 4 °C. Non-binding proteins were washed from the column with four washes (5 ml per wash) of PBS and protein complexes with an affinity to the peptide were eluted from the column with 7 M urea, 2 M thiourea, 40 mM Tris-HCl, and 1% (w/v) C7BzO (4 times of 2 ml). Eluents were concentrated with a Macrosep® 3 kDa cutoff centrifugal device (Pall), precipitated with acetone, and separated by 1D-SDS PAGE. The whole lane was divided into sections, in-gel digested with trypsin, and analysed by LC-MS/MS as described above.
# cytokeratin 7 = experiment: Affinity chromatography of A549 lysate on P1-15, cytokeratin 7; assay type: binding, human; conditions: biotinylated P1-15 on avidin agarose vs uncoupled avidin agarose control, native A549 cell lysate
# Protocol: as §5
# vitronectin = experiment: Microtitre plate binding assay (ELISA), vitronectin; design: species or system human; conditions: 15 µg/ml of C-terminal P1 fragments bound to wells, absorbance 450 nm (620 nm reference), eight replicates, P1-15 with N-terminal biotin tag
# Protocol: as §2, §3, §4
# plasma fibrinogen = experiment: Microtitre plate binding assay (ELISA), fibrinogen; design: species or system human; conditions: 15 µg/ml of C-terminal P1 fragments bound to wells, absorbance 450 nm (620 nm reference), eight replicates, P1-15 with N-terminal biotin tag
# Protocol: as §2, §3, §4
# [1] = system: glyceraldehyde-3-phosphate dehydrogenase; experiment: Affinity chromatography of A549 lysate on P1-15, glyceraldehyde-3-phosphate dehydrogenase; assay type: binding, human; conditions: slice 3; biotinylated P1-15 on avidin agarose vs uncoupled control; native A549 cell lysate
# Protocol: as §5
# laminin = experiment: Microtitre plate binding assay (ELISA), laminin; design: species or system human; conditions: 15 µg/ml of C-terminal P1 fragments bound to wells, absorbance 450 nm (620 nm reference), eight replicates, P1-15 with N-terminal biotin tag
# Protocol: as §2, §3, §4
# panel of host proteins = experiment: Microtitre binding assays, panel of host proteins; design: species or system human; conditions: 15 µg/ml of C-terminal P1 fragments bound to wells
# Protocol: as §2, §3, §4
# vimentin = experiment: Affinity chromatography of A549 lysate on P1-15, vimentin; assay type: binding, human; conditions: biotinylated P1-15 on avidin agarose vs uncoupled avidin agarose control, native A549 cell lysate
# Protocol: as §5
# cytokeratin 18 = experiment: Affinity chromatography of A549 lysate on P1-15, cytokeratin 18; assay type: binding, human; conditions: biotinylated P1-15 on avidin agarose vs uncoupled avidin agarose control, native A549 cell lysate
# Protocol: as §5
# Glu-plasminogen = experiment: Microtitre plate binding assay (ELISA), plasminogen; design: species or system human; conditions: 15 µg/ml of C-terminal P1 fragments bound to wells, absorbance 450 nm (620 nm reference), eight replicates, P1-15 with N-terminal biotin tag
# Protocol: as §2, §3, §4
# lactoferrin = experiment: Microtitre plate binding assay (ELISA), lactoferrin; design: species or system human; conditions: 15 µg/ml of C-terminal P1 fragments bound to wells, absorbance 450 nm (620 nm reference), eight replicates, P1-15 with N-terminal biotin tag
# Protocol: as §2, §3, §4
# fetuin = molecular target: T1, fetuin; experiment: Microscale thermophoresis, binding to fetuin
# Protocol: as §1
# [2] = design: method as in PMID 28894125; conditions: ref [12]; cited from earlier work
# A549 human lung cells = experiment: Binding to immobilised A549 human lung cells (microtitre plate); assay type: cell-based; conditions: 10 µg/ml; detection with antiserum against RP15 (1:100), absorbance 450 nm; eight replicates
# Protocol: Freshly grown A549 cells were immobilised in 96-well microtitre plates as described in[17]. Immobilised A549 cells were incubated with 10 µg/ml of either RP15, P1-30, or P1-15 and binding affinity was measured with antiserum raised against RP15 (1:100) as described above. Absorbance detection at 450 nm is the same as described above.
# Human vitronectin = molecular target: T4, Human vitronectin (human, UniProt P04004 20-478); experiment: ELISA; 15 µg/ml of C-terminal P1 fragment bound to wells, incubated with host protein at several concentrations; detected with antiserum against the host protein, absorbance at 450 nm; conditions: both partners purified
# T4 construct: vitronectin, human, Sigma SRP3186; source: bought: Sigma (Code SRP3186)
# Human lactoferrin = molecular target: T5, Human lactoferrin (human, UniProt P02788 20-710); experiment: as above; conditions: both partners purified
# T5 construct: lactoferrin, human, Sigma L1294; source: bought: Sigma (Code L1294)
# [3] = molecular target: T2, Fetuin, fluorescent labelled …; experiment: MST; fluorescent labelled host protein, peptide titrated; thermophoresis 30 s, 40%, 60% and 80% MST power; conditions: both partners purified
# [4] = listed as 1613PGAPKPPVQPPKKPA^1627
# T4 sequence (P04004 20-478): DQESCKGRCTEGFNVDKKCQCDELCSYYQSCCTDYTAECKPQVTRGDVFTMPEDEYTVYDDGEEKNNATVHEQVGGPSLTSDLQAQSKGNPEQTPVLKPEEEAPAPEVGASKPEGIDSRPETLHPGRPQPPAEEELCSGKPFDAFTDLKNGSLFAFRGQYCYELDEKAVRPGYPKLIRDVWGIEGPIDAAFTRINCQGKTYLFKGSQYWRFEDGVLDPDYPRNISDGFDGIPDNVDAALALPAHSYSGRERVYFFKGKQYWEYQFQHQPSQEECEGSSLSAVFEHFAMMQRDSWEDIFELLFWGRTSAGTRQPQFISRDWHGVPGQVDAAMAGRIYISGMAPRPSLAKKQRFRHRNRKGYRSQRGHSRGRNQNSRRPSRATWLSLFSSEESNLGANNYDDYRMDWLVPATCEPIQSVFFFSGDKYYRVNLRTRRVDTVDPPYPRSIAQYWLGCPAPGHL
# T5 sequence (P02788 20-710): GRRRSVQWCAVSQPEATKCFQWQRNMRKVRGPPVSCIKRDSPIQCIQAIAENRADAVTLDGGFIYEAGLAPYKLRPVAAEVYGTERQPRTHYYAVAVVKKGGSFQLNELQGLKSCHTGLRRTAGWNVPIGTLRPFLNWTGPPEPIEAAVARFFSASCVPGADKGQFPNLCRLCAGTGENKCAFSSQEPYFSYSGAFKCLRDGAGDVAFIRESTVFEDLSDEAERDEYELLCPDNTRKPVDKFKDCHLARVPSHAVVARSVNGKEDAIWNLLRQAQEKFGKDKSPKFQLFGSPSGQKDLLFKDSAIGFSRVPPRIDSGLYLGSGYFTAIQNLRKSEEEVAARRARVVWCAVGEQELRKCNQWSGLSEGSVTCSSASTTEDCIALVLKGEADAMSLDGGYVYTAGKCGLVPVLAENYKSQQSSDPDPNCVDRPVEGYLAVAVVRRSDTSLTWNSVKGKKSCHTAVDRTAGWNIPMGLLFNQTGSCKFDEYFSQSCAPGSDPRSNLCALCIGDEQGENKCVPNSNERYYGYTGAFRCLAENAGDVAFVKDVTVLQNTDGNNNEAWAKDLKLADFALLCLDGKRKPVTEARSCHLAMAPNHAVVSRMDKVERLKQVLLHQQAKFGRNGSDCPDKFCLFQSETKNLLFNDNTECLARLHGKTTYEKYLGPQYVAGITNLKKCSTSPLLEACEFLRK
molecule,measurement,setting,value
CC(C)[C@H](NC(=O)[C@@H]1CCCN1C(=O)[C@@H]1CCCN1C(=O)[C@H](CCCCN)NC(=O)[C@@H]1CCCN1C(=O)[C@H](C)NC(=O)CNC(=O)[C@@H]1CCCN1C(=O)[C@H](CCCCN)NC(=O)[C@@H]1CCCN1C(=O)[C@@H]1CCCN1C(=O)[C@@H](NC(=O)[C@@H]1CCCN1C(=O)[C@@H]1CCCN1C(=O)[C@H](CCCNC(=N)N)NC(=O)[C@@H]1CCCN1C(=O)[C@H](C)NC(=O)CNC(=O)[C@@H]1CCCN1C(=O)[C@H](CCCCN)NC(=O)[C@H](C)NC(=O)[C@H](C)NC(=O)[C@H](CO)NC(=O)[C@@H](N)[C@@H](C)O)C(C)C)C(=O)N[C@@H](CCC(N)=O)C(=O)N1CCC[C@H]1C(=O)N1CCC[C@H]1C(=O)N[C@@H](CCCCN)C(=O)N[C@@H](CCCCN)C(=O)N1CCC[C@H]1C(=O)N[C@@H](C)C(=O)O [P1-30] (H-TSAAKPGAPRPPVPPKPGAPKPPVQPPKKPA-OH),Kd,plasminogen,0.554 ± 0.0021 µM
"PGAPKPPVQPPKKPA [P1-15, C-terminal 15 amino acids of P1, synthesised chemically, N-terminal biotin tag]",binding to fibronectin,plasma fibronectin,"failed to bind laminin, lactoferrin, fibronectin"
same,"selective recovery / binding, cytokeratin 8",cytokeratin 8,selectively recovered
same,"selective recovery / binding, cytokeratin 8",cytokeratin 8; [4],selectively bound
same,"selective recovery / binding, cytokeratin 7",cytokeratin 7,selectively recovered
same,"selective recovery / binding, cytokeratin 7",cytokeratin 7; [4],selectively bound
same,binding to vitronectin,vitronectin,also bound to vitronectin
same,binding to fibrinogen,plasma fibrinogen,"failed to bind laminin, lactoferrin, fibronectin, and fibrinogen"
same,recovery of glyceraldehyde-3-phosphate dehydrogenase,[1],also identified in the eluents from the control
same,binding to laminin,laminin,failed to bind laminin
same,binding to panel of host molecules,panel of host proteins,bind a range of host molecules in a dose dependent manner
same,"selective recovery / binding, vimentin",vimentin,selectively recovered
same,"selective recovery / binding, vimentin",vimentin; [4],selectively bound
same,"selective recovery / binding, cytokeratin 18",cytokeratin 18,selectively recovered
same,"selective recovery / binding, cytokeratin 18",cytokeratin 18; [4],selectively bound
same,binding to plasminogen,Glu-plasminogen,only bound plasminogen in a dose dependent manner; also recorded: bound plasminogen in a dose-responsive manner
same,binding to lactoferrin,lactoferrin,"failed to bind laminin, lactoferrin"
"PKPPRAAPPKAPTPVPPGPASPVKKPKQAPG [scrambled version of P1-30, scrambled version of the C-terminal P1 peptide ([…])]","binding affinity in words, fetuin",fetuin,No binding affinity could be detected
same,"KD, fetuin","fetuin; fluorescent labelled host protein, 30 s, 40%, 60% and 80% MST Power",could not be assigned a KD value
same,"binding affinity in words, plasminogen",plasminogen; microscale thermophoresis,No binding affinity could be detected
same,"KD, plasminogen","plasminogen; microscale thermophoresis, fluorescent labelled host protein, 30 s, 40%, 60% and 80% MST Power",could not be assigned a KD value
elongation factor Tu [Ef-Tu],affinity to heparin,[2],strong affinity to heparin
B1,binding to immobilised A549 cells,A549 human lung cells,bound immobilised A549 cells
B2,binding to fibronectin,plasma fibronectin,"bound lactoferrin, vitronectin, plasminogen, fibronectin"
same,binding to fibronectin,plasma fibronectin; listed as RP-15,bound fibronectin and fibrinogen more strongly than P1-30
same,binding result,Human vitronectin,binds
same,binding result,Human lactoferrin,binds
same,binding to vitronectin,vitronectin,"bound lactoferrin, vitronectin"
same,binding to fibrinogen,plasma fibrinogen,"bound lactoferrin, vitronectin, plasminogen, fibronectin, and fibrinogen"
same,binding to fibrinogen,plasma fibrinogen; listed as RP-15,bound fibronectin and fibrinogen more strongly than P1-30
same,binding to laminin,laminin,Only M. pneumoniae cells bound laminin
same,binding to panel of host molecules,panel of host proteins,bind a range of host molecules in a dose dependent manner; also recorded: most consistent and most diverse binding capabilities
same,binding to immobilised A549 cells,A549 human lung cells,bound immobilised A549 cells; also recorded: observed to bind immobilised A549 cells
same,binding to plasminogen,Glu-plasminogen,"bound lactoferrin, vitronectin, plasminogen"
same,binding to plasminogen,Glu-plasminogen; listed as RP-15,bound it more strongly
same,binding to lactoferrin,lactoferrin,bound lactoferrin
B3,Kd,[3],2.4 ± 0.7 µM
B4,binding result,Human vitronectin,binds
